Marks after values point to notes of the source that are not given here.
Assays:
[1] = test system: arrhythmia caused by ischemia/reperfusion insults in anaesthetic rats; assay: Ischemia/reperfusion arrhythmia in anaesthetic rats, intravenous injection; format: in vivo, rat; conditions: for Occurrence time / VE Duration time / VE Incidence (%) / VF Duration time / VF Incidence (%) / VT Duration time / VT Incidence (%): intravenously injected per table title
Excerpt: (1) Protective Effects of the Tested Compounds on Myocardial Insults in Rats after Intravenously Injection
(§1) Arrhythmic potency induced by myocardial insults was used to assess the potential protective effect of the compounds.

[2] = test system: arrhythmia induced by ischemia/reperfusion insults in anesthetized rats; assay: Ischemia/reperfusion arrhythmia in anesthetized rats, oral administration; format: in vivo, rat
Experimental: IMM-004 and IMM-127 were dissolved in the solution of ethanol and PEG (ethanol: PEG (v/v)=1:9). Rats were orally administrated the compounds at volume of 10 ml/Kg. The left anterior descending coronary artery was ligated in rats for 15 min at 60 min after the administration, and then the reprefusion was achieved.
as §1

[3] = test system: TA97; TA98; TA100; TA102; assay: Ames (mutagenesis) test, overall result in 4 strains; format: cell-based; conditions: 0.5, 5, 50 and 500 μg/dish
Experimental: (§2) To assess the mutagenic effects of 5 compounds (IMM-004; IMM-065; IMM-127; IMM-128; IMM-313), the Ames test was performed in 4 strains (TA97; TA98; TA100; TA102). The experiment was conducted with compounds at 4 concentration levels (0.5, 5, 50 and 500 μg/dish). […]

[4] = test system: TA97; assay: Ames test, strain TA97; format: cell-based
Experimental: as §2

[5] = test system: TA98; assay: Ames test, strain TA98; format: cell-based
Experimental: as §2

[6] = test system: TA100; assay: Ames test, strain TA100; format: cell-based
Experimental: as §2

[7] = test system: TA102; assay: Ames test, strain TA102; format: cell-based
Experimental: as §2

[8] = test system: KM mice; assay: Acute toxicity study in mice; format: in vivo; conditions: 5 g/kg; 10 mice per group, 7 days observation
Experimental: Acute toxicity studies were performed with IMM-004 and IMM-127 (synthesized by ourselves). The compound was provided as powder, which was milled and suspended in 0.5% carboxymethylcellulose sodium (CMC—Na) before use.
Male KM mice weighting 19±2 g were housed for an adaptation before use. Mice were randomly divided into groups, and each group consists of 10 animals. Mice were all fasted for 14 hrs before the administration of the tested compounds. Activity of mice in high dose group was reduced 30 min after the administration. 24 h after the administration, mice in each group were restored to normal. Mice were observed daily for a period of 7 days after the administration.

[9] = 3 mg/Kg intravenous (femoral vein), rats

## O=c1c2cc(F)ccc2[se]n1-c1ccccn1 [IMM-127, 5-fluoro-2-(2-pyridyl)-1,2-benz-isoselenazol-3(2H)-one]
[1]; [9]
  incidence and duration of VT, VF, VE / ventricular arrhythmic: all reduced
  latency of ventricular arrhythmic: significantly prolonged
[1]; 10 mg/Kg
  Occurrence time: 15.5 ± 21.5 s
  VE Duration time: 2.5 ± 6.4 s
  VE Incidence (%): 100%
  VF Duration time: 6.6 ± 7.2 s
  VF Incidence (%): 22.2%
  VT Duration time: 32.1 ± 26.1 s
  VT Incidence (%): 66.7%
[1]; 30 mg/Kg
  Occurrence time: 9.6 ± 9.2 s
  VE Duration time: 0.2 ± 0.5 s
  VE Incidence (%): 100%
  VF Duration time: 3.2 ± 5.5 s
  VF Incidence (%): 11.1* %
  VT Duration time: 18.0 ± 11.4 s
  VT Incidence (%): 66.7%
[1]; 100 mg/Kg
  Occurrence time: 9.0 ± 19.7 s
  VE Duration time: 2.2 ± 63 s
  VE Incidence (%): 88.9%
  VF Duration time: 5.1 ± 7.8 s
  VF Incidence (%): 22.2%
  VT Duration time: 31.1 ± 21.3 s
  VT Incidence (%): 44.4** %
[2]; 10 mg/Kg orally, rats
  protective effect: incidence/duration of VT, VF, duration of ventricular arrhythmic: significantly reduced
[2]; 10 mg/Kg p.o.
  Occurrence time: 15.5 ± 21.5 s
  VE Duration time: 2.5 ± 6.4 s
  VE Incidence (%): 100%
  VF Duration time: 6.6 ± 7.2 s
  VF Incidence (%): 22.2%
  VT Duration time: 32.1 ± 26.1 s
  VT Incidence (%): 66.7%
[2]; 30 mg/Kg orally, rats
  protective effect: incidence/duration of VT, VF, duration of ventricular arrhythmic: all reduced
[2]; 30 mg/Kg p.o.
  Occurrence time: 9.6 ± 9.2 s
  VE Duration time: 0.2 ± 0.5 s
  VE Incidence (%): 100%
  VF Duration time: 3.2 ± 5.5 s
  VF Incidence (%): 11.1* %
  VT Duration time: 18.0 ± 11.4 s
  VT Incidence (%): 66.7%
[2]; 100 mg/Kg p.o.
  Occurrence time: 9.0 ± 19.7 s
  VE Duration time: 2.2 ± 63 s
  VE Incidence (%): 88.9%
  VF Duration time: 5.1 ± 7.8 s
  VF Incidence (%): 22.2%
  VT Duration time: 31.1 ± 21.3 s
  VT Incidence (%): 44.4** %
[2]; 100 mg/kg orally, rats
  protective effect: incidence/duration of VT, duration of ventricular arrhythmic: reduced
[3]
  mutagenic effect (Ames test): No evidence for a mutagenic effect
[4]; 0.5 μg/dish
  TA97 +S9: 60.67 ± 3.86
  TA97 −S9: 60.00 ± 8.16
[4]; 5 μg/dish
  TA97 +S9: 59.67 ± 8.18
  TA97 −S9: 56.67 ± 13.27
[4]; 50 μg/dish
  TA97 +S9: 68.50 ± 2.50
  TA97 −S9: 60.33 ± 3.77
[4]; 500 μg/dish
  TA97 +S9: 48.00 ± 2.16
  TA97 −S9: 57.33 ± 6.94
[5]; 0.5 μg/dish
  TA98 +S9: 73.67 ± 4.63
  TA98 −S9: 93.50 ± 10.50
[5]; 5 μg/dish
  TA98 +S9: 53.00 ± 5.72
  TA98 −S9: 85.00 ± 5.00
[5]; 50 μg/dish
  TA98 +S9: 42.33 ± 7.41
  TA98 −S9: 89.00 ± 10.61
[5]; 500 μg/dish
  TA98 +S9: 42.67 ± 5.31
  TA98 −S9: 96.00 ± 4.90
[6]; 0.5 μg/dish
  TA100 +S9: 95.00 ± 10.23
  TA100 −S9: 83.00 ± 14.14
[6]; 5 μg/dish
  TA100 +S9: 102.67 ± 21.06
  TA100 −S9: 62.00 ± 10.80
[6]; 50 μg/dish
  TA100 +S9: 100.00 ± 6.16
  TA100 −S9: 67.67 ± 22.05
[6]; 500 μg/dish
  TA100 +S9: 100.67 ± 4.49
  TA100 −S9: 72.33 ± 23.67
[7]; 0.5 μg/dish
  TA102 +S9: 205.33 ± 17.98
  TA102 −S9: 199.67 ± 17.13
[7]; 5 μg/dish
  TA102 +S9: 216.00 ± 21.42
  TA102 −S9: 224.67 ± 16.34
[7]; 50 μg/dish
  TA102 +S9: 250.67 ± 15.43
  TA102 −S9: 195.33 ± 35.22
[7]; 500 μg/dish
  TA102 +S9: 233.33 ± 16.11
  TA102 −S9: 143.67 ± 19.01
[8]
  Lethal cases: 7

Reference: patent publication US20060135569A1, “Use of benzisoselenazolone compounds against ischemic myocardial damage” (priority 2002, published 2006)
